From US12421253B2 (Mirati Therapeutics, Inc., priority 2020, dated 2025)

Columns and labels:
KRas^G12D = biological target: T1, KRas^G12D (Homo sapiens, UniProt P01116, G12D); test: KRas binding assay (TR-FRET displacement of Cy5 labelled tracer)
T1 construct: […]; biotin (biotinylated); purchased Accelegan Inc

KRas^G12R = biological target: T2, KRas^G12R (Homo sapiens, UniProt P01116, G12R); test: as above
T2 construct: […]; biotin (biotinylated); purchased Accelegan Inc

KRas^G12V = biological target: T3, KRas^G12V (Homo sapiens, UniProt P01116, G12V); test: as above
T3 construct: […]; biotin (biotinylated); purchased Accelegan Inc

ASPC1 cells, pERK = test: Inhibition of KRas phosphorylation of ERK (Cisbio HTRF Advanced pERK assay); type: cell-based; conditions: Homo sapiens, ASPC1, 3 h, AsPC-1 cells, read-out: Inhibition (HTRF IC50 nM) of KRas-mediated Phosphorylation of ERK, AsPC-1
Experimental: (§1) Inhibition of KRas Phosphorylation of ERK (HTRF) by Exemplary Compounds of Formula (I)
(§2) Cisbio HTRF Advanced pERK Assay Catalog #64AERPEH
(§3) • Day 1: Seed 6,000 cells/well −25 μl/well in 384-well white solid bottom plate; RPM1_10% FBS. […] To harvest cells from flask using 0.05% Trypsin/EDTA solution. Add 10 mL of media to stop trypsinizing. Pipette the cells into a conical bottom 50 mL centrifuge tube and centrifuge 5 min×1000 rpm. • 2. Re-suspend the cell pellet in media, take a cell count, and then adjust the cell density using fresh media. • 3. Seed 6,000 cells into cell culture plate with […]. The • 4. Incubate cell plate overnight in a 37° C., 5% CO2 incubator. Compound Titrations • 1. Use Tecan to complete the compound addition. Compounds start from 10 uM top, 3-fold dilution, and 10 doses. The final DMSO concentration is 0.8%. Dispensed 0.2 uM Trametinib as Min control. • 2. Incubate cell plate for 3 hrs in the incubator. Detection with Cisbio pERK HTRF Kit • 1. Dilute 1 volume of 4× lysis buffer with 3 volumes of deionized water. Then, add 100× the blocking reagent. Keep lysis buffer on the ice. • 2. At the end of the compound treatment, flick-off the media. • 3. Add 35 μL of lysis buffer per well using a Multidrop Combi. Then place on a plate agitator shaking at 300 rpm at 4° C. for 40 mins. • 4. Make up the HTRF antibody buffer. For each assay plate, mix 50 μL of d2-conjugate antibody with 950 μL of detection buffer. Similarly, mix 50 μL of Cryptate antibody with 950 μL of detection buffer. Then mix the two diluted antibodies together. • 5. Dispense 3.4 μL the antibody buffer to wells of an empty assay plate. Seal the plate and centrifuge plate 30 sec×1000 rpm. • 6. At the end of the 4° C. lysis, centrifuge the lysate plates 3 mins×1500 rpm. • 7. Use the Bravo to transfer 13.6 μL of lysate from cell culture plate to assay plate. Then incubate assay plate for 2 hrs at room temperature. • 8. At the end of incubation, read plate on the Envision after centrifuging plate 30 sec×1000 rpm.

H727 cells, pERK = test: as above; type: cell-based; conditions: Homo sapiens, NCI-H727, 3 h, read-out: Inhibition (HTRF IC50 nM) of KRas-mediated Phosphorylation of ERK, H727
Experimental: as §1, §2, §3

MKN1 cells, pERK = test: as above; type: cell-based; conditions: Homo sapiens, MKN-1, 3 h, read-out: Inhibition (HTRF IC50 nM) of KRas-mediated Phosphorylation of ERK, MKN1
Experimental: as §1, §2, §3

PSN1 cells, pERK = test: as above; type: cell-based; conditions: Homo sapiens, PSN1, 3 h, read-out: Inhibition (HTRF IC50 nM) of KRas-mediated Phosphorylation of ERK, PSN1
Experimental: as §1, §2, §3

T1 sequence (P01116 1-169 isoform P01116-2 G12D): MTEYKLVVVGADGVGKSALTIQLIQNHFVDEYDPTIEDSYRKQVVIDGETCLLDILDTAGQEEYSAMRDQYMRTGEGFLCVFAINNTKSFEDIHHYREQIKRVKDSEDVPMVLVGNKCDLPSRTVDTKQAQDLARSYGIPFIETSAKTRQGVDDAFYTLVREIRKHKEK
T2 sequence (P01116 1-169 isoform P01116-2 G12R): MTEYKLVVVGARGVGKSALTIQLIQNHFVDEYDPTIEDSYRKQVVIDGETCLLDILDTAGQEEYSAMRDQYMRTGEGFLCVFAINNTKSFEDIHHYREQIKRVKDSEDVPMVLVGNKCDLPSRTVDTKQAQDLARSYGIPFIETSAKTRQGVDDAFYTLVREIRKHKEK
T3 sequence (P01116 1-169 isoform P01116-2 G12V): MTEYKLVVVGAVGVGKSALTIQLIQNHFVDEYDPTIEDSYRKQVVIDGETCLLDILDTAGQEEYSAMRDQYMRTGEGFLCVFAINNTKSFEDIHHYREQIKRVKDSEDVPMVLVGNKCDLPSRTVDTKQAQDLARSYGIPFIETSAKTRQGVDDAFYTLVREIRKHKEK

| SMILES | IC50 (KRas^G12D) [nM] | IC50 (KRas^G12R) [nM] | IC50 (KRas^G12V) [nM] | IC50 (ASPC1 cells, pERK) [nM] | IC50 (H727 cells, pERK) [nM] | IC50 (MKN1 cells, pERK) [nM] | IC50 (PSN1 cells, pERK) [nM] |
| --- | --- | --- | --- | --- | --- | --- | --- |
| CCc1c(F)ccc2cc(O)cc(N3CCc4c(nc(OC[C@@]56CCCN5C[C@H](F)C6)nc4N4CC5CC(O)C5C4)C3)c12 (stereo partly drawn) [Example 177, 3-(7-(8-ethyl-7-fluoro-3-hydroxynaphthalen-1-yl)-2-(((2R,7aS)-2-fluorohexahydro-1H-pyrrolizin-7a-yl)methoxy)-5,6,7,8-tetrahydropyrido[3,4-d]pyrimidin-4-yl)-3-azabicyclo[3.2.0]heptan-6-ol] | 19 | 15 | 9 | 1310 | 1380 | 479 | ≥ 10000 |
| CCc1c(F)ccc2cc(O)cc(N3CCc4c(nc(OC[C@@]56CCCN5C[C@H](F)C6)nc4N4CCCc5nn(C(=O)NC(C)C)cc5C4)C3)c12 [Example 195, 5-(7-(8-ethyl-7-fluoro-3-hydroxynaphthalen-1-yl)-2-(((2R,7aS)-2-fluorohexahydro-1H-pyrrolizin-7a-yl)methoxy)-5,6,7,8-tetrahydropyrido[3,4-d]pyrimidin-4-yl)-N-isopropyl-5,6,7,8-tetrahydropyrazolo[4,3-c]azepine-2(4H)-carboxamide] | 17 | 20 | 8 | 1110 | 373 | 1520 | ≥ 10000 |
| Oc1cc(N2CCc3c(nc(OC[C@@]45CCCN4C[C@H](F)C5)nc3N3CCOCC(n4cccn4)C3)C2)c2c(Cl)c(F)ccc2c1 (stereo partly drawn) [Example 230, 4-(4-(6-(1H-pyrazol-1-yl)-1,4-oxazepan-4-yl)-2-(((2R,7aS)-2-fluorohexahydro-1H-pyrrolizin-7a-yl)methoxy)-5,6-dihydropyrido[3,4-d]pyrimidin-7(8H)-yl)-5-chloro-6-fluoronaphthalen-2-ol] | 5 | 5 | 3 | 1090 | 1750 | 112 | ≥ 10000 |
| OCC1COCCN(c2nc(OC[C@@]34CCCN3C[C@H](F)C4)nc3c2CCN(c2cc(O)cc4ccc(F)c(Cl)c24)C3)C1 (stereo partly drawn) [Example 73, 5-chloro-6-fluoro-4-(2-(((2R,7aS)-2-fluorohexahydro-1H-pyrrolizin-7a-yl)methoxy)-4-(6-(hydroxymethyl)-1,4-oxazepan-4-yl)-5,6-dihydropyrido[3,4-d]pyrimidin-7(8H)-yl)naphthalen-2-ol] | 5 | 3 | 3 | 661 | 871 | 85 | 6380 |
| CCc1c(F)ccc2cc(O)cc(N3CCc4c(nc(OC[C@@]56CCCN5C[C@H](F)C6)nc4N4CC5CC(O)CC(C5)C4)C3)c12 (stereo partly drawn) [Example 179, 3-(7-(8-ethyl-7-fluoro-3-hydroxynaphthalen-1-yl)-2-(((2R,7aS)-2-fluorohexahydro-1H-pyrrolizin-7a-yl)methoxy)-5,6,7,8-tetrahydropyrido[3,4-d]pyrimidin-4-yl)-3-azabicyclo[3.3.1]nonan-7-ol] | 207 | 80 | 101 | 5170 | 4790 | 1210 | ≥ 10000 |
| Oc1cc(N2CCc3c(nc(OC[C@@]45CCCN4C[C@H](F)C5)nc3N3CC4CC(O)C(C4)C3)C2)c2c(Br)c(F)ccc2c1 (stereo partly drawn) [Example 215, 3-(7-(8-bromo-7-fluoro-3-hydroxynaphthalen-1-yl)-2-(((2R,7aS)-2-fluorohexahydro-1H-pyrrolizin-7a-yl)methoxy)-5,6,7,8-tetrahydropyrido[3,4-d]pyrimidin-4-yl)-3-azabicyclo[3.2.1]octan-6-ol] | 10 | 3 | 3 | 1300 | 957 | 203 | 7580 |

The next compounds have a lower IC50 (KRas^G12D) than those just listed; values first:

| IC50 (KRas^G12D) [nM] | IC50 (KRas^G12R) [nM] | IC50 (KRas^G12V) [nM] | IC50 (ASPC1 cells, pERK) [nM] | IC50 (H727 cells, pERK) [nM] | IC50 (MKN1 cells, pERK) [nM] | IC50 (PSN1 cells, pERK) [nM] | SMILES |
| --- | --- | --- | --- | --- | --- | --- | --- |
| ≤ 2 | 7 | ≤ 2 | 543 | 1350 | 101 | 3900 | CCc1c(F)ccc2cc(O)cc(N3CCc4c(nc(OCC5(CN(C)C)CC5)nc4N4CCCC5(CNS(=O)(=O)N5)C4)C3)c12 (stereo not drawn) [Example 202, 7-(2-((1-((dimethylamino)methyl)cyclopropyl)methoxy)-7-(8-ethyl-7-fluoro-3-hydroxynaphthalen-1-yl)-5,6,7,8-tetrahydropyrido[3,4-d]pyrimidin-4-yl)-2-thia-1,3,7-triazaspiro[4.5]decane 2,2-dioxide] |
| ≤ 2 | ≤ 2 | ≤ 2 | 976 | 651 | 62 | ≥ 10000 | Oc1cc(N2CCc3c(nc(OC[C@@]45CCCN4C[C@H](F)C5)nc3N3CCCC4(CC(O)C4)C3)C2)c2c(Br)c(F)ccc2c1 (stereo partly drawn) [Example 224, 6-(7-(8-bromo-7-fluoro-3-hydroxynaphthalen-1-yl)-2-(((2R,7aS)-2-fluorohexahydro-1H-pyrrolizin-7a-yl)methoxy)-5,6,7,8-tetrahydropyrido[3,4-d]pyrimidin-4-yl)-6-azaspiro[3.5]nonan-2-ol] |
| ≤ 2 | ≤ 2 | ≤ 2 | 668 | 616 | 29 | 4100 | OCC1COCCN(c2nc(OC[C@@]34CCCN3C[C@H](F)C4)nc3c2CCN(c2cc(O)cc4ccc(F)c(Br)c24)C3)C1 (stereo partly drawn) [Example 220, 5-bromo-6-fluoro-4-(2-(((2R,7aS)-2-fluorohexahydro-1H-pyrrolizin-7a-yl)methoxy)-4-(6-(hydroxymethyl)-1,4-oxazepan-4-yl)-5,6-dihydropyrido[3,4-d]pyrimidin-7(8H)-yl)naphthalen-2-ol] |
| 4 | 5 | 3 | 1360 | 1460 | 145 | ≥ 10000 | Oc1cc(N2CCc3c(nc(OC[C@@]45CCCN4C[C@H](F)C5)nc3N3CCOCC(n4cccn4)C3)C2)c2c(Br)c(F)ccc2c1 (stereo partly drawn) [Example 221, 4-(4-(6-(1H-pyrazol-1-yl)-1,4-oxazepan-4-yl)-2-(((2R,7aS)-2-fluorotetrahydro-1H-pyrrolizin-7a(5H)-yl)methoxy)-5,8-dihydropyrido[3,4-d]pyrimidin-7(6H)-yl)-5-bromo-6-fluoronaphthalen-2-ol] |
| ≤ 2 | 3 | ≤ 2 | 24 | 29 | 11 | ≥ 10000 | CCc1c(F)ccc2cc(O)cc(N3CCc4c(nc(OC[C@@]56CCCN5C[C@H](F)C6)nc4N4CCCn5nc(C(=O)N(C)C)c(Cl)c5C4)C3)c12 [Example 192, 3-chloro-5-(7-(8-ethyl-7-fluoro-3-hydroxynaphthalen-1-yl)-2-(((2R,7aS)-2-fluorotetrahydro-1H-pyrrolizin-7a(5H)-yl)methoxy)-5,6,7,8-tetrahydropyrido[3,4-d]pyrimidin-4-yl)-N,N-dimethyl-5,6,7,8-tetrahydro-4H-pyrazolo[1,5-a][1,4]diazepine-2-carboxamide] |
| ≤ 2 | ≤ 2 | ≤ 2 | 228 | 191 | 90 | ≥ 10000 | CCc1c(F)ccc2cc(O)cc(N3CCc4c(nc(OC[C@@]56CCCN5C[C@H](F)C6)nc4N4CCCc5nc(N)sc5C4)C3)c12 [Example 181, 4-(4-(2-amino-7,8-dihydro-4H-thiazolo[5,4-c]azepin-5(6H)-yl)-2-(((2R,7aS)-2-fluorohexahydro-1H-pyrrolizin-7a-yl)methoxy)-5,6-dihydropyrido[3,4-d]pyrimidin-7(8H)-yl)-5-ethyl-6-fluoronaphthalen-2-ol] |
